“And” between values parts separate entries of the source, which are not always exact repeats. Equal entries are not always repeated.
Experiment: Determination of biodistribution of radiolabeled compounds in rats after caudal vein administration
Type: in vivo, SD strain rats
Settings: for Biodistribution, Blood / Biodistribution, Femur and Tibia / Biodistribution, Kidney / Biodistribution, Liver / Biodistribution, Urine: SD-rats female, n = 3, caudal vein
Method: SD strain rats (female, age in 8-9 weeks, n=3) were used with free access to water and food ad libitum, and anesthetized with Ravonal, (a trade name of thiopental sodium, manufactured by Tanabe Seiyaku Co., Ltd.), then the test sample solution was administered to the caudal vein. The test rats were killed by bleeding during the blood samples were taken from the abdominal aorta at each times of sampling after the administration. The organs of interest were excised. After measured the weights of these samples, the radioactivities were determined, and biodistributions were calculated. The results of determination of biodistribution relating to the labeled compounds obtained in Examples 1, 2 and 4 and the labeled compounds of methanediphosphonic acid (MDP) used as reference examples are shown in Tables 3 to 7. Determination results are indicated as %ID/g, and determination results of urine are indicated as %ID.

[1] = 15 Minutes after administration
[2] = 120 Minutes after administration

| Biodistribution, Blood [1] | Biodistribution, Femur and Tibia [1] | Biodistribution, Kidney [1] [% ID/g] | Biodistribution, Liver [1] [% ID/g] | Biodistribution, Urine [1] | Biodistribution, Blood [2] [% ID/g] | Biodistribution, Femur and Tibia [2] | Biodistribution, Kidney [2] [% ID/g] | Biodistribution, Liver [2] [% ID/g] | Biodistribution, Urine [2] | change of accumulation level to the bone (in words) (SD-rats, from 15 minutes to 120 minutes after the administration) | accumulation to the bone (in words) (SD-rats, summary of Tables 3-8) | blood clearance (in words) (SD-rats, summary of Tables 3-8) | urinary excretion (in words) (SD-rats, summary of Tables 3-8) | SMILES |
| --- | --- | --- | --- | --- | --- | --- | --- | --- | --- | --- | --- | --- | --- | --- |
| 0.717 ± 0.159 % ID/g | 3.423 ± 0.302 % ID/g | 2.751 ± 0.951 | 0.495 ± 0.078 | 19.55 ± 0.72 % ID | 0.042 ± 0.006 | 3.714 ± 0.474 % ID/g | 1.070 ± 0.539 | 0.380 ± 0.037 | 41.54 ± 4.19 % ID | did not significantly vary | accumulated to the bone quickly | relatively rapid | rapidly excreted into urine | O=C(NCC(P(=O)(O)O)P(=O)(O)O)c1ccccc1I |
| 0.599 ± 0.103 % ID/g | 3.014 ± 0.377 % ID/g | 3.225 ± 0.543 | 0.159 ± 0.009 | 29.69 ± 0.14 % ID | 0.089 ± 0.037 | 3.552 ± 0.327 % ID/g | 0.762 ± 0.279 | 0.068 ± 0.003 | 48.15 ± 1.50 % ID | – | – | – | – | O=C(O)CNC(=O)CC(P(=O)(O)O)P(=O)(O)O (99mTc complex, metal not drawn) [N-(3,3-diphosphonopropionyl)glycine] |

| SMILES | Biodistribution, Blood [1] | Biodistribution, Femur and Tibia [1] | Biodistribution, Kidney [1] [% ID/g] | Biodistribution, Liver [1] [% ID/g] | Biodistribution, Urine [1] | Biodistribution, Blood [2] [% ID/g] | Biodistribution, Femur and Tibia [2] | Biodistribution, Kidney [2] [% ID/g] | Biodistribution, Liver [2] [% ID/g] | Biodistribution, Urine [2] | change of accumulation level to the bone (in words) (SD-rats, from 15 minutes to 120 minutes after the administration) | accumulation to the bone (in words) (SD-rats, summary of Tables 3-8) | blood clearance (in words) (SD-rats, summary of Tables 3-8) | urinary excretion (in words) (SD-rats, summary of Tables 3-8) |
| --- | --- | --- | --- | --- | --- | --- | --- | --- | --- | --- | --- | --- | --- | --- |
| O=C(O)CN(CCN(CC(=O)O)CC(=O)O)CCN(CC(=O)O)CC(=O)NCC(P(=O)(O)O)P(=O)(O)O [3,6-bis(carboxymethyl)-9-(((2,2-diphosphonoethyl)carbamoyl)m] [3,6-bis(carboxymethyl)-9-(((2,2-diphosphonoethyl)carbamoyl)methyl)-3,6,9-triazaundecanedicarboxylic acid] | 0.519 ± 0.025 % ID/g and 0.621 ± 0.239 % ID/g and 0.463 ± 0.056 % ID/g | 2.777 ± 0.311 % ID/g and 2.417 ± 0.495 % ID/g and 2.643 ± 0.182 % ID/g | – | – | 26.04 ± 9.29 % ID and 28.64 ± 5.55 % ID and 37.996 ± 5.927 % ID | – | 2.739 ± 0.385 % ID/g and 3.089 ± 0.340 % ID/g and 2.922 ± 0.187 % ID/g | – | – | 40.31 ± 9.02 % ID and 54.91 ± 1.96 % ID and 54.927 ± 4.073 % ID | – | – | – | – |

— US6607710B1, “Bisphosphonic acid derivative and compound thereof labeled with radioactive nuclide” (Nihon Medi-Physics Co., Ltd., priority 1999, dated 2003)
